The record followed here is patent US10624897B2, “Chlorobenzene substituted azaaryl compounds” (TAIPEI MEDICAL UNIVERSITY, priority 2015, dated 2020).

One data set concerns HUVEC. Kind of data set: MTT assay, viability of normal cells. Type of data set: cell-based, Human. The note with it: 72 hours, FIG. 1B. The method, then: Cell viability was assessed the MTT assay. […] Data are expressed as means±S.D. (***P<0.001 compares to control group).
(§1) Cells were cultured in RPMI-1640 (RT-112, KMS-11, SNU-16, HT-29, HCT-116, NCI—H520, Hep3B, PLC/PRF/5, HL-60, MOLT-4) and DMEM (HepG2, MCF-7, MDA-MB-231) with 10% FBS (v/v) and Penicillin/Streptomycin (100 U/ml). FU-DDLS-1 cell line was maintained in DMEM:F12 medium with 10% FBS. LiSa-2 cell line was maintained in IMDM/RPMI-1640 in a 4:1 ratio supplemented with 10% FBS, 2 mmol/L L-glutamine, and 0.1 mg/mL gentamicin. Human umbilical vein endothelial cells (HUVECs) were grown to confluence on 1% collagen, and maintained in 90% Medium 199 with 25 U/ml heparin, 30 μg/ml endothelial cell growth supplement (ECGS) adjusted to contain 1.5 g/L sodium bicarbonate, 10% FBS and Penicillin/Streptomycin (100 U/ml) Cultures were maintained at 37° C. in a humidified atmosphere of 5% CO2/95% air.
Cells were seeded in 96-well plates (5,000 cells/well) and incubated overnight for attachment, and were then treated with indicated agents in 10% FBS-supplemented medium for 72 hours. […] After removal of medium, the cells were lysed with 100 μL per well dimethyl sulfoxide (DMSO), and absorbance at 550 nm was measured with microplate reader. The relative cell viability (%) was expressed as a percentage relative to a DMSO control cells.
In general terms: Tetrazolium dyes change colour on reduction, which living cells bring about.

For a further data set, the system named is FGFR signaling. In words: Western blot of FGFR signaling in RT-112 cells. It counts as cell-based. The text has this: BGJ-398, a known selective inhibitor of FGFR1 to FGFR3, was included as a reference compound. […] The major downstream pathways of FGFRs are MAPK, PI3K/AKT, and PLC-γ. RT-112 cells, which express FGFR3-TACC3, are reportedly unable to activate PLCγ due to a deletion of the last exon of FGFR3.

Another data set addresses T1, FGFR3(V555M) (Homo sapiens, UniProt P22607, V555M).
T1 construct: made in house; host or cells: E. coli BL21-derived host (T7 phage) or HEK-293
Kind of data set: Kinase binding assay (Kd), mutant FGFR3. The method, then: (§2) Kinase assays. For most assays, kinase-tagged T7 phage strains were prepared in an E. coli host derived from the BL21 strain. E. coli were grown to log-phase and infected with T7 phage and incubated with shaking at 32° C. until lysis. The lysates were centrifuged and filtered to remove cell debris. The remaining kinases were produced in HEK-293 cells and subsequently tagged with DNA for qPCR detection. […] The liganded beads were blocked with excess biotin and washed with blocking buffer (SeaBlock (Pierce), 1% BSA, 0.05% Tween 20, 1 mM DTT) to remove unbound ligand and to reduce non-specific binding. […] All reactions were performed in polystyrene 96-well plates in a final volume of 0.135 ml. […] The kinase concentration in the eluates was measured by qPCR.
(§3) An 11-point 3-fold serial dilution of each test compound was prepared in 100% DMSO at 100× final test concentration and subsequently diluted to 1× in the assay (final DMSO concentration=1%). Most Kds were determined using a compound top concentration=30,000 nM.
(§4) Binding constants (Kds) were calculated with a standard dose-response curve using the Hill equation: […]
(§5) The Hill Slope was set to −1. Curves were fitted using a non-linear least square fit with the Levenberg-Marquardt algorithm.
(§6) The compound and assay method are similar to those mentioned in Example 45.

The next data set concerns the target T2, FGFR3(K650E) (Homo sapiens, UniProt P22607, K650E).
T2 construct: made in house; host or cells: E. coli BL21-derived host (T7 phage) or HEK-293
Kind of data set: Kinase binding assay (Kd), mutant FGFR3. On the procedure:
as §2, §3, §4, §5, §6

Another data set concerns the target T3, FGFR3(G697C) (Homo sapiens, UniProt P22607, G697C).
T3 construct: made in house; host or cells: E. coli BL21-derived host (T7 phage) or HEK-293
In words: Kinase binding assay (Kd), mutant FGFR3. The method, then:
as §2, §3, §4, §5, §6

For the next data set, the target named is T4, PIP5K1A (Homo sapiens, UniProt Q99755).
T4 construct: made in house; host or cells: E. coli BL21-derived host (T7 phage) or HEK-293
In words: Lipid kinase binding assay (Kd). On the procedure: as §2, §3, §4, §5

The target of a further data set is T5, PIP5K2C (Homo sapiens, UniProt Q8TBX8).
T5 construct: made in house; host or cells: E. coli BL21-derived host (T7 phage) or HEK-293
In words: Lipid kinase binding assay (Kd). On the procedure: as §2, §3, §4, §5

For a further data set, the target named is T6, PIK3C2B (Homo sapiens, UniProt O00750).
T6 construct: made in house; host or cells: E. coli BL21-derived host (T7 phage) or HEK-293
Kind of data set: Lipid kinase binding assay (Kd). On the procedure: as §2, §3, §4, §5

For the next data set, the target named is T7, PIK3CB (Homo sapiens, UniProt P42338).
T7 construct: made in house; host or cells: E. coli BL21-derived host (T7 phage) or HEK-293
In words: Lipid kinase binding assay (Kd). On the procedure:
as §2, §3, §4, §5

Another data set concerns the target T8, PIK3CD (Homo sapiens, UniProt O00329).
T8 construct: made in house; host or cells: E. coli BL21-derived host (T7 phage) or HEK-293
Kind of data set: Lipid kinase binding assay (Kd). The method, then: as §2, §3, §4, §5

The next data set concerns PLC/PRF/5. In words: MTT assay, cell viability. It counts as cell-based. The note with it: PLC5, 5 uM, 72 hours. On the procedure: as §1
(§7) Cells were seeded in 96-well plates (5,000 cells/well) and incubated overnight for attachment, and were then treated with indicated agents in 10% FBS-supplemented medium for 72 hours. The medium was replaced with MTT (0.5 mg/mL) at 37° C. for 1 hours. After removal of medium, the cells were lysed with 100 μL per well dimethyl sulfoxide (DMSO), and absorbance at 550 nm was measured with microplate reader. The relative cell viability (%) was expressed as a percentage relative to a DMSO control cells.

The subject of the next data set is Hep3B. In words: MTT assay, cell viability. It counts as cell-based. The note with it: 5 uM, 72 hours. The method, then: as §1, §7
The next data set concerns HL-60. In words: MTT assay, cell viability. Particulars: Homo sapiens; HL-60, AML, 72 hours; read-out: IC50 (μM, Mean ± SD). Type of data set: cell-based. On the procedure:
as §1, §7

The test system of a further data set is RT-112. Kind of data set: MTT assay, cell viability. It counts as cell-based. The note with it: 72 hours. The method, then:
as §1, §7

In a further data set the test system is MOLT-4. Kind of data set: MTT assay, cell viability. Type of data set: cell-based. Particulars: Homo sapiens; MOLT-4, ALL, 72 hours; read-out: IC50 (μM, Mean ± SD). On the procedure: as §1, §7
Another data set relates to SNU-16. In words: MTT assay, cell viability. The note with it: 72 hours. Type of data set: cell-based. On the procedure:
as §1, §7

Another data set concerns HT-29. Kind of data set: MTT assay, cell viability. Type of data set: cell-based. The note with it: Homo sapiens; HT-29, Colorectal, 72 hours; read-out: IC50 (μM, Mean ± SD). On the procedure:
as §1, §7

For a further data set, the system named is RT-112 cells. Kind of data set: Western blot of G0/G1 regulatory proteins. Type of data set: cell-based. Particulars: 24 h, FIG. 3C. The method, then: C. […] Apoptosis was assessed via detection of cleaved caspase-3 and PARP.
We observed that genes associated with cell cycle progression were decreased in MPT0L145-treated cells. […] This phenomenon was also observed in the cells treated with BGJ-398 (FIG. 3A). […] Next, we examined expression of G0/G1 regulatory proteins via western blot. […] The possibility of MPT0L145-induced apoptosis was further eliminated by examining cleavage of caspase-3 and its substrate, PARP, in 72 h, compared with paclitaxel (FIG. 3D).
A general note: A western blot detects proteins with antibodies after separation by electrophoresis.

In another data set the target is T9, FGFR3 (Homo sapiens, UniProt P22607).
T9 construct: made in house; host or cells: E. coli BL21-derived host (T7 phage) or HEK-293
In words: Kinase binding assay (Kd). Particulars: FGFR3 (wild-type). The method, then:
as §2, §3, §4, §5, §6

The term Kd denotes the equilibrium constant for the complex coming apart. Low values mean a tighter complex, high ones a looser complex. For orientation: IC50 means the point on the concentration scale where inhibition reaches its midpoint.

Molecules are shown by their SMILES. Values joined by “and” are separate entries in the source; they are usually repeats but may differ in a detail not shown here. Equal entries are not always repeated.

T9 sequence (P22607 23-806): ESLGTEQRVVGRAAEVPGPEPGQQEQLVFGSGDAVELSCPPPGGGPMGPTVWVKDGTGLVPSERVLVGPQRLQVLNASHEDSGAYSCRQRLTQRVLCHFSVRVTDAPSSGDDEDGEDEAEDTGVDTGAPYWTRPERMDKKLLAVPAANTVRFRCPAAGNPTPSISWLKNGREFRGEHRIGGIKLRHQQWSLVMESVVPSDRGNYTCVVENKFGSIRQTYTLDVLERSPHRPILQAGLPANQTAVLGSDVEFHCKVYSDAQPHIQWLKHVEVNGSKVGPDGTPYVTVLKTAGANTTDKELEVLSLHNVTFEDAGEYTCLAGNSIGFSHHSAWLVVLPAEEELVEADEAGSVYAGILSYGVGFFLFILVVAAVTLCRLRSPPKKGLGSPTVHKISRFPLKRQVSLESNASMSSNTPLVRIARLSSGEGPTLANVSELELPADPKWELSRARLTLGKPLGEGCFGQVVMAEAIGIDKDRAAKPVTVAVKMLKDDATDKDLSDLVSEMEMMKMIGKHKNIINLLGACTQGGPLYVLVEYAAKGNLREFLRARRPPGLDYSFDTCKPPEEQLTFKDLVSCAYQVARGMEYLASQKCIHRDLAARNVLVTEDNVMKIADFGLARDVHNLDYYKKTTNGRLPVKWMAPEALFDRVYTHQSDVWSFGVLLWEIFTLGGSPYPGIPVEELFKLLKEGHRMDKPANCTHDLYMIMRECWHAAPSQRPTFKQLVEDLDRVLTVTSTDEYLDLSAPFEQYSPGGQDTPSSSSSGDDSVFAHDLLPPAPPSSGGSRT
T8 sequence (O00329 whole entry): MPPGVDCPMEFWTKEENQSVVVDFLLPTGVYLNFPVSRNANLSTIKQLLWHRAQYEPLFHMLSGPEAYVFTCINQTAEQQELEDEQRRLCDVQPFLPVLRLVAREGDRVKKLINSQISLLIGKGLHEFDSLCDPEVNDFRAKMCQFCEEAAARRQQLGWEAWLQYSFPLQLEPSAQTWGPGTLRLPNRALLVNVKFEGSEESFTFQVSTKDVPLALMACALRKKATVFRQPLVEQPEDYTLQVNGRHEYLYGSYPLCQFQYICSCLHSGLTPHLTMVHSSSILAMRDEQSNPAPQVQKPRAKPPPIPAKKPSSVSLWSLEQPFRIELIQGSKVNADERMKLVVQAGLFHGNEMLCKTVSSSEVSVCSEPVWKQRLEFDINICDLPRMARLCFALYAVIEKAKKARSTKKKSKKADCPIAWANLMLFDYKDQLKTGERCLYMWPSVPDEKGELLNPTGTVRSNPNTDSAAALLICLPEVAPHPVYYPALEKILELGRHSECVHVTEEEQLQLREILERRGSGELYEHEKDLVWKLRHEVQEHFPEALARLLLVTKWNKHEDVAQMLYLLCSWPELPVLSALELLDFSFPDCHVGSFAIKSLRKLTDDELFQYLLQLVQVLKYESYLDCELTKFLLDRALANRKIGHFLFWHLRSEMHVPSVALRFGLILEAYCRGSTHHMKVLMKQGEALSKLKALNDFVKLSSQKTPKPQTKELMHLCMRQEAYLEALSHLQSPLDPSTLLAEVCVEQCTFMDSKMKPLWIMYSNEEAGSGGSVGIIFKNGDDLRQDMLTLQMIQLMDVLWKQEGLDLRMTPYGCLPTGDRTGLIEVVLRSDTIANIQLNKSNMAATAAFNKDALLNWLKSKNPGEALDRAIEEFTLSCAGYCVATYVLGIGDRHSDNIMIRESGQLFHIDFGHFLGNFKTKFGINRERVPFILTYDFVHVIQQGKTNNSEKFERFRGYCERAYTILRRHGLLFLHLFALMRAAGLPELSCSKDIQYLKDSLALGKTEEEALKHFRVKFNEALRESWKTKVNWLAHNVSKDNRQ
T5 sequence (Q8TBX8 whole entry): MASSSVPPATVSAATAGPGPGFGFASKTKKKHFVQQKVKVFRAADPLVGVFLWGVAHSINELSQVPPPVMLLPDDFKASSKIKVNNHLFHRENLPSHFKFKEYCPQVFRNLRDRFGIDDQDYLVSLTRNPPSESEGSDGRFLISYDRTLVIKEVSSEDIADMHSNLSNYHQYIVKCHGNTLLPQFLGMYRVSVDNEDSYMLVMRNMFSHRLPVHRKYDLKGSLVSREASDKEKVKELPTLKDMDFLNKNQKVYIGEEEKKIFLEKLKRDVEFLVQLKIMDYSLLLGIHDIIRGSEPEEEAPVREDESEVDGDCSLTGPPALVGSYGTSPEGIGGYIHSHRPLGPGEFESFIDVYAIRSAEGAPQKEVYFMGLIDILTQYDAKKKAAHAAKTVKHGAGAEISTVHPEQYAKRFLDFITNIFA
T7 sequence (P42338 whole entry): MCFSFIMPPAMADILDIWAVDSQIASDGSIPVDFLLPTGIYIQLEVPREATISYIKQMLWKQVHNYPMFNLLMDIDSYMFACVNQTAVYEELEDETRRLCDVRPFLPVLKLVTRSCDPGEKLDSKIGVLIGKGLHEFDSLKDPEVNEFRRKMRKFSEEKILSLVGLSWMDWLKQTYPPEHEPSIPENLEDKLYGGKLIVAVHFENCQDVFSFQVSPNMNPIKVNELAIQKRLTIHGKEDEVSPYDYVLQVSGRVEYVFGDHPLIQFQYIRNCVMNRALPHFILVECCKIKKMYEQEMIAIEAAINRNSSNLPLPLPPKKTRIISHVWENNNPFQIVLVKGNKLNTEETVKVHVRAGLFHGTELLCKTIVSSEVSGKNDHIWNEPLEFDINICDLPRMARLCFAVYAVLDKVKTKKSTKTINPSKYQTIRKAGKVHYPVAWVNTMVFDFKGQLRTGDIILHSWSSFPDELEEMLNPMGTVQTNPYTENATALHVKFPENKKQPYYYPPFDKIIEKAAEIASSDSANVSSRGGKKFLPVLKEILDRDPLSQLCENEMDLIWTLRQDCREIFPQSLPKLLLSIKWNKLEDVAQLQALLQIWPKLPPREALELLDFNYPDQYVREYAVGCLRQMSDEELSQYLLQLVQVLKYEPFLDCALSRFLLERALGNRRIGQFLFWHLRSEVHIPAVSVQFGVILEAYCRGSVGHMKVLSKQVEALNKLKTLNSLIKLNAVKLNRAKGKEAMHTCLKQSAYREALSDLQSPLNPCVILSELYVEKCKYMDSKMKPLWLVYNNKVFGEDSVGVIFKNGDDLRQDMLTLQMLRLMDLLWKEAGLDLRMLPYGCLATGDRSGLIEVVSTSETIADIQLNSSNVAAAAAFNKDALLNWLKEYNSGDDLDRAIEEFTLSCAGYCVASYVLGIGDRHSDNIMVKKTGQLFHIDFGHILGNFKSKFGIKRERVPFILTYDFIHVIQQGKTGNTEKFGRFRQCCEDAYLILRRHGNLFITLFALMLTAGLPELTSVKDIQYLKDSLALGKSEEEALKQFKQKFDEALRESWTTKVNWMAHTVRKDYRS
T2 sequence (P22607 23-806 K650E): as the sequence (P22607 23-806) above, with K628E counted along it
T3 sequence (P22607 23-806 G697C): as the sequence (P22607 23-806) above, with G675C counted along it
T4 sequence (Q99755 whole entry): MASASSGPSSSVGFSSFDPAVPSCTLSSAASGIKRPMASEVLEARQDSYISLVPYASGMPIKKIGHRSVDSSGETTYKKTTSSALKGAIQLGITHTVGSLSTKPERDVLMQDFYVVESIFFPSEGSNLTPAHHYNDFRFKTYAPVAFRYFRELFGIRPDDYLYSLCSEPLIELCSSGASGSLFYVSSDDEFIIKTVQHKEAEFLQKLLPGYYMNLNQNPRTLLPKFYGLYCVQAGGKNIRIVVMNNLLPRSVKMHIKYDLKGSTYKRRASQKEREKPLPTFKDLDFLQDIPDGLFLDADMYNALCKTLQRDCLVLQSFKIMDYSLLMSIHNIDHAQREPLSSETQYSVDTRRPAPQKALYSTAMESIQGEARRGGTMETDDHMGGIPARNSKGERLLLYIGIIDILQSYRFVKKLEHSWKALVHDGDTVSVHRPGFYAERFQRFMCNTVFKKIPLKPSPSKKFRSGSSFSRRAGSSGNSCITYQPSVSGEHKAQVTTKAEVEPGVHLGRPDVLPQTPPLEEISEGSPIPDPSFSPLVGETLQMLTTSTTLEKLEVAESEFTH
T1 sequence (P22607 23-806 V555M): as the sequence (P22607 23-806) above, with V533M counted along it

On to `CCN1CCN(c2ccc(Nc3ncnc(N(C)C(=O)Nc4c(Cl)c(OC)c(Cl)c(OC)c4Cl)n3)cc2)CC1` [MPT0L145, 1-(4-((4-(4-ethylpiperazin-1-yl)phenyl)amino)-1,3,5-triazin-2-yl)-1-methyl-3-(2,4,6-trichloro-3,5-dimethoxyphenyl)urea], for which the “toxicity in normal cells (HUVEC) compared with BGJ-398” value with HUVEC is on record as “significantly lower toxicity”. For the same compound, the “inhibiting AKT phosphorylation” value in the data set with FGFR signaling (1 to 4 h, FIG. 2B, 2C) is “better potency than BGJ-398”. In addition, the “auto-phosphorylation of FGFR1 and FGFR3 and docking protein FRS2” value in the data set on FGFR signaling (1 h, FIG. 2A) was “exerted inhibitory activity”. In addition, in the data set with FGFR signaling (1 h, concentration-dependent, FIG. 2B), the “phosphorylation of ERK” value is listed as “inhibited”. In addition, the “phosphorylation of ERK and AKT” value in the data set on FGFR signaling (8 h, FIG. 2D) is given as “fully repressed”. Besides, the Kd at FGFR3(V555M) was over 10 µM; at FGFR3(K650E), 0.24 µM; at FGFR3(G697C), 0.39 µM; on PIP5K1A, over 10 µM; at PIP5K2C, over 10 µM; on PIK3C2B, 1 µM. Besides, the Kd at PIK3CB was over 10 µM; at PIK3CD it was over 10 µM; at FGFR3, 0.27 µM and 0.39 µM. Moreover, in the data set with PLC/PRF/5, the “Viability (% of control cells) PLC5 (5 uM) Mean” value was 20.6 % of control cells. The “Viability (% of control cells) Hep3B (5 uM) Mean” value in the data set on Hep3B was 66.2 % of control cells. Moreover, the values for the IC50 in the data set on HL-60, in the data set with MOLT-4 and in the data set with HT-29 were 4.72 ± 1.46 µM, 3.7 ± 0.2 µM and 2.49 ± 0.29 µM, respectively. The “Viability (% of control cells) RT-112 (5 uM) Mean” value with RT-112 (RT-112, 5 uM) is on record as 33.4 % of control cells. For the same compound, the “Viability (% of control cells) RT-112 (10 uM) Mean” value with RT-112 (RT-112, 10 uM) was 8.5 % of control cells. Moreover, the “Viability (% of control cells) SNU-16 (5 uM) Mean” value with SNU-16 was 36.9 % of control cells. Moreover, the “cyclin E levels” value in the data set with RT-112 cells is “marked decrease”. Further, in the data set on RT-112 cells, the p16 level result is listed as “slight increase”.
